System: DMS-114 complex spheroids with HUVEC/MSC, growth % test/control
Assay: Anticancer human tumor DMS-114 cell line growth inhibition [AhR];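 further: spheroids exposed to agents for 7 days before readout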;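 on viability, T/C: 100% = DMSO vehicle control wells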
Conditions: for IC50: curve of first compound; for viability, T/C: stronger effect = lower value
Outline: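 Spheroids combined tumor cells with HUVEC endothelial cells and human MSCs as stroma. AhR antagonists were paired with standard or investigational drugs, each dosed in half-log steps down from near clinical Cmax, or from 10 microM where Cmax was unknown.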

[1] = second compound 0.1 µM, first compound 0.0316 µM
[2] = second compound 0.1 µM, first compound 0.1 µM
[3] = second compound 0.1 µM, first compound 0.316 µM
[4] = second compound 0.1 µM, first compound 1 µM
[5] = second compound 0.1 µM, first compound 3.16 µM
[6] = second compound 0.1 µM, first compound 10 µM
[7] = second compound 0.316 µM, first compound 0.0316 µM
[8] = second compound 0.316 µM, first compound 0.1 µM
[9] = second compound 0.316 µM, first compound 0.316 µM
[10] = second compound 0.316 µM, first compound 1 µM
[11] = second compound 0.316 µM, first compound 3.16 µM
[12] = second compound 0.316 µM, first compound 10 µM
[13] = second compound 1 µM, first compound 0.0316 µM
[14] = second compound 1 µM, first compound 0.1 µM
[15] = second compound 1 µM, first compound 0.316 µM
[16] = second compound 1 µM, first compound 1 µM
[17] = second compound 1 µM, first compound 3.16 µM
[18] = second compound 1 µM, first compound 10 µM
[19] = second compound 3.16 µM, first compound 0.0316 µM
[20] = second compound 3.16 µM, first compound 0.1 µM
[21] = second compound 3.16 µM, first compound 0.316 µM
[22] = second compound 3.16 µM, first compound 1 µM
[23] = second compound 3.16 µM, first compound 3.16 µM
[24] = second compound 3.16 µM, first compound 10 µM
[25] = second compound 10 µM, first compound 0.0316 µM
[26] = second compound 10 µM, first compound 0.1 µM
[27] = second compound 10 µM, first compound 0.316 µM
[28] = second compound 10 µM, first compound 1 µM
[29] = second compound 10 µM, first compound 3.16 µM
[30] = second compound 10 µM, first compound 10 µM

Row | Structure (SMILES) | IC50 (second compound 0.1 µM) | IC50 (second compound 0.316 µM) | IC50 (second compound 1 µM) | IC50 (second compound 3.16 µM) | IC50 (second compound 10 µM) | viability, T/C [1] | viability, T/C [2] | viability, T/C [3] | viability, T/C [4] | viability, T/C [5] | viability, T/C [6] | viability, T/C [7] | viability, T/C [8] | viability, T/C [9] | viability, T/C [10] | viability, T/C [11] | viability, T/C [12] | viability, T/C [13] | viability, T/C [14] | viability, T/C [15] | other results
1 | Nc1ccn(C2OC(CO)C(O)C2(F)F)c(=O)n1 (stereo not given) + Cc1ccccc1N=Nc1ccc(NC(=O)c2ccnn2C)c(C)c1 | < 31.6 nM | < 31.6 nM | < 31.6 nM | < 31.6 nM | < 31.6 nM | 21.8% | 23.8% | 25.1% | 23.9% | 25.7% | 25.5% | 25.6% | 28.2% | 26.3% | 23% | 23.2% | 24.2% | 25.5% | 24.6% | 26.5% | viability, T/C [16]: 23.7%; viability, T/C [17]: 26.4%; viability, T/C [18]: 25.7%; viability, T/C [19]: 25.4%; viability, T/C [20]: 27.7%; viability, T/C [21]: 28.3%; viability, T/C [22]: 24.9%; viability, T/C [23]: 26.8%; viability, T/C [24]: 28.5%; viability, T/C [25]: 29.2%; viability, T/C [26]: 32.7%; viability, T/C [27]: 29.4%; viability, T/C [28]: 31.7%; viability, T/C [29]: 31.7%; viability, T/C [30]: 30%
2 | O=C(C=Cc1cccc(S(=O)(=O)Nc2ccccc2)c1)NO + Cc1ccccc1N=Nc1ccc(NC(=O)c2ccnn2C)c(C)c1 | 1850 nM | 1720 nM | 1750 nM | 1660 nM | 1670 nM | 101% | 101% | 96.1% | 74.5% | 27.4% | 30.3% | 96.6% | 95.2% | 101% | 68.8% | 30.1% | 27.4% | 99% | 102% | 94.7% | viability, T/C [16]: 71.1%; viability, T/C [17]: 26.4%; viability, T/C [18]: 29.1%; viability, T/C [19]: 101%; viability, T/C [20]: 97.5%; viability, T/C [21]: 91.2%; viability, T/C [22]: 66%; viability, T/C [23]: 28.7%; viability, T/C [24]: 28.7%; viability, T/C [25]: 88.7%; viability, T/C [26]: 96.1%; viability, T/C [27]: 86.5%; viability, T/C [28]: 65.8%; viability, T/C [29]: 29.5%; viability, T/C [30]: 29.9%
3 | O=C(c1cc(Cc2n[nH]c(=O)c3ccccc23)ccc1F)N1CCN(C(=O)C2CC2)CC1 + Cc1ccccc1N=Nc1ccc(NC(=O)c2ccnn2C)c(C)c1 | > 10000 nM | > 10000 nM | > 10000 nM | > 10000 nM | > 10000 nM | 109% | 107% | 103% | 111% | 110% | 97.5% | 122% | 109% | 112% | 105% | 97.9% | 94.7% | 113% | 95.8% | 111% | viability, T/C [16]: 105%; viability, T/C [17]: 102%; viability, T/C [18]: 105%; viability, T/C [19]: 105%; viability, T/C [20]: 111%; viability, T/C [21]: 94.7%; viability, T/C [22]: 102%; viability, T/C [23]: 94.2%; viability, T/C [24]: 103%; viability, T/C [25]: 87.2%; viability, T/C [26]: 103%; viability, T/C [27]: 87.2%; viability, T/C [28]: 91.2%; viability, T/C [29]: 88.3%; viability, T/C [30]: 81%

— PubChem BioAssay AID1919008 (Molecular Pharmacology Branch, DTP, NCI, 2023)
